Results reported in patent US7687246B2, “Process for producing carotenoids” (DSM IP Assets B. V., priority 2002, dated 2010).

Key:
Type in all cases: cell-based
[1] = tested on: Phaffia rhodozyma ATCC96594; assay: Effect of the squalene synthase inhibitor on the cell growth of Phaffia rhodozyma (Example 1)
Method: Phaffia rhodozyma ATCC96594 (redeposited under the accession No. ATCC 74438 on Apr. 8, 1998 pursuant to the Budapest Treaty) was inoculated into YPD medium (DIFCO, Detroit, U.S.A., 10 mL in tube) and cultivated by shaking at 20° C. for 2 days. 0.5 mL of the culture was inoculated into fresh YPD medium (10 mL in tube) containing 30 g/L of glucose and 0, 0.2, 0.5, 1.0, 2.0, 5.0, 10.0, and 20.0, μg/mL, respectively, of [3-(3-allyl-biphenyl-4-yl-oxy)-propyl]-isopropyl-amine, and cultivated by shaking at 20° C. for 5 days. An aliquot of the culture was withdrawn occasionally during the cultivation, and optical density at 660 nm was measured by using UV-1200 photometer (Shimadzu Corp., Kyoto, Japan) for analysis of the cell growth.

[2] = tested on: Phaffia rhodozyma ATCC96594; assay: Effect of the squalene synthase inhibitor on astaxanthin production by Phaffia rhodozyma (Example 2); details: for Astaxanthin content (relative values): relative to Day 7 without inhibitor = 100
Method: Phaffia rhodozyma ATCC96594 (redeposited under the accession No. ATCC 74438 on Apr. 8, 1998 pursuant to the Budapest Treaty) was inoculated into YPD medium as in Example 1 and cultivated by shaking at 20° C. for 2 days. 2.5 ml of the culture were inoculated into fresh YPD medium (50 mL in flask) containing 22 g/L of glucose and 0, 0.5, 1.0, 2.0, and 5.0, μg/mL, respectively, of [3-(3-allyl-biphenyl-4-yloxy)-propyl]-isopropyl-amine, and cultivated by shaking at 20° C. for 7 days. On Day 2 of the cultivation, 50 g/L of glucose was added to the culture. Addition of the inhibitor in the middle of the cultivation was also tested. An aliquot of the culture was withdrawn at Day 4 and Day 7 of the cultivation, and optical density at 660 nm (by using the same method described in Example 1) and astaxanthin content in the culture were measured. For analysis of the content of astaxanthin, the withdrawn broth was mixed with a solvent mixture (ethyl alcohol, hexane and ethyl acetate) and carotenoids were extracted from the cells of Phaffia rhodozyma by vigorous shaking with glass beads. After extraction, disrupted cells and glass beads were removed by centrifugation and the resultant supernatant was analyzed by HPLC for the astaxanthin content. The HPLC conditions used were as follows: [table] A reference sample of astaxanthin was obtained from Hoffmann La-Roche (Basel, Switzerland).

[3] = tested on: Phaffia rhodozyma ATCC96594; assay: Cell growth of Phaffia rhodozyma during astaxanthin production culture (Example 2)
Method: An aliquot of the culture was withdrawn occasionally during the cultivation, and optical density at 660 nm was measured by using UV-1200 photometer (Shimadzu Corp., Kyoto, Japan) for analysis of the cell growth. Phaffia rhodozyma ATCC96594 (redeposited under the accession No. ATCC 74438 on Apr. 8, 1998 pursuant to the Budapest Treaty) was inoculated into YPD medium as in Example 1 and cultivated by shaking at 20° C. for 2 days. 2.5 ml of the culture were inoculated into fresh YPD medium (50 mL in flask) containing 22 g/L of glucose and 0, 0.5, 1.0, 2.0, and 5.0, μg/mL, respectively, of [3-(3-allyl-biphenyl-4-yloxy)-propyl]-isopropyl-amine, and cultivated by shaking at 20° C. for 7 days. On Day 2 of the cultivation, 50 g/L of glucose was added to the culture. Addition of the inhibitor in the middle of the cultivation was also tested. An aliquot of the culture was withdrawn at Day 4 and Day 7 of the cultivation, and optical density at 660 nm (by using the same method described in Example 1) and astaxanthin content in the culture were measured.

[4] = 5.0 μg/mL inhibitor added at Day 2 of the cultivation, Day 4
[5] = 5.0 μg/mL inhibitor added at Day 2 of the cultivation, Day 7
[6] = 5.0 μg/mL inhibitor from start, Day 4
[7] = 5.0 μg/mL inhibitor from start, Day 7

C=CCc1cc(-c2ccccc2)ccc1OCCCNC(C)C [[3-(3-allyl-biphenyl-4-yloxy)-propyl]-isopropyl-amine]
Cell growth (OD at 660 nm) ([1]; 0.2 μg/mL inhibitor, Day 1): 4.5 | Cell growth (OD at 660 nm) ([1]; 0.2 μg/mL inhibitor, Day 2): 16.7 | Cell growth (OD at 660 nm) ([1]; 0.2 μg/mL inhibitor, Day 3): 20.1 | Cell growth (OD at 660 nm) ([1]; 0.2 μg/mL inhibitor, Day 5): 19.3 | Cell growth (OD at 660 nm) ([1]; 0.5 μg/mL inhibitor, Day 1): 4.4 | Cell growth (OD at 660 nm) ([1]; 0.5 μg/mL inhibitor, Day 2): 15.6 | Cell growth (OD at 660 nm) ([1]; 0.5 μg/mL inhibitor, Day 3): 20.4 | Cell growth (OD at 660 nm) ([1]; 0.5 μg/mL inhibitor, Day 5): 19.4 | Cell growth (OD at 660 nm) ([1]; 1.0 μg/mL inhibitor, Day 1): 4.0 | Cell growth (OD at 660 nm) ([1]; 1.0 μg/mL inhibitor, Day 2): 15.0 | Cell growth (OD at 660 nm) ([1]; 1.0 μg/mL inhibitor, Day 3): 20.0 | Cell growth (OD at 660 nm) ([1]; 1.0 μg/mL inhibitor, Day 5): 19.5 | Cell growth (OD at 660 nm) ([1]; 2.0 μg/mL inhibitor, Day 1): 3.6 | Cell growth (OD at 660 nm) ([1]; 2.0 μg/mL inhibitor, Day 2): 15.0 | Cell growth (OD at 660 nm) ([1]; 2.0 μg/mL inhibitor, Day 3): 19.5 | Cell growth (OD at 660 nm) ([1]; 2.0 μg/mL inhibitor, Day 5): 19.0 | Cell growth (OD at 660 nm) ([1]; 5.0 μg/mL inhibitor, Day 1): 2.9 | Cell growth (OD at 660 nm) ([1]; 5.0 μg/mL inhibitor, Day 2): 12.3 | Cell growth (OD at 660 nm) ([1]; 5.0 μg/mL inhibitor, Day 3): 18.8 | Cell growth (OD at 660 nm) ([1]; 5.0 μg/mL inhibitor, Day 5): 18.0 | Cell growth (OD at 660 nm) ([1]; 10.0 μg/mL inhibitor, Day 1): 2.0 | Cell growth (OD at 660 nm) ([1]; 10.0 μg/mL inhibitor, Day 2): 5.6 | Cell growth (OD at 660 nm) ([1]; 10.0 μg/mL inhibitor, Day 3): 14.7 | Cell growth (OD at 660 nm) ([1]; 10.0 μg/mL inhibitor, Day 5): 16.9 | Cell growth (OD at 660 nm) ([1]; 20.0 μg/mL inhibitor, Day 1): 1.2 | Cell growth (OD at 660 nm) ([1]; 20.0 μg/mL inhibitor, Day 2): 1.7 | Cell growth (OD at 660 nm) ([1]; 20.0 μg/mL inhibitor, Day 3): 2.7 | Cell growth (OD at 660 nm) ([1]; 20.0 μg/mL inhibitor, Day 5): 7.0 | inhibition at 5 µg/mL ([1]; Phaffia rhodozyma, ATCC96594, 48 h, 5.0 μg/mL inhibitor, Day 2): ~23% | cell growth (effect in words) ([1]; concentration not higher than 2.0 μg/mL): not affected | Astaxanthin content (relative values) ([2]; 0.5 μg/mL inhibitor, Day 4): 75 | Astaxanthin content (relative values) ([2]; 0.5 μg/mL inhibitor, Day 7): 114 | Astaxanthin content (relative values) ([2]; 1.0 μg/mL inhibitor, Day 4): 77 | Astaxanthin content (relative values) ([2]; 1.0 μg/mL inhibitor, Day 7): 118 | Astaxanthin content (relative values) ([2]; 2.0 μg/mL inhibitor, Day 4): 75 | Astaxanthin content (relative values) ([2]; 2.0 μg/mL inhibitor, Day 7): 125 | Astaxanthin content (relative values) [2, 4]: 84 | Astaxanthin content (relative values) [2, 5]: 131 | Astaxanthin content (relative values) [2, 6]: 67 | Astaxanthin content (relative values) [2, 7]: 129 | Astaxanthin production (effect in words) ([2]; all conditions tested (0.5-5.0 μg/mL, from start or added at Day 2)): enhanced | Cell growth (OD at 660 nm) ([3]; 0.5 μg/mL inhibitor, Day 4): 39.6 | Cell growth (OD at 660 nm) ([3]; 0.5 μg/mL inhibitor, Day 7): 39.8 | Cell growth (OD at 660 nm) ([3]; 1.0 μg/mL inhibitor, Day 4): 40.3 | Cell growth (OD at 660 nm) ([3]; 1.0 μg/mL inhibitor, Day 7): 39.8 | Cell growth (OD at 660 nm) ([3]; 2.0 μg/mL inhibitor, Day 4): 38.2 | Cell growth (OD at 660 nm) ([3]; 2.0 μg/mL inhibitor, Day 7): 39.3 | Cell growth (OD at 660 nm) [3, 4]: 37.4 | Cell growth (OD at 660 nm) [3, 5]: 37.9 | Cell growth (OD at 660 nm) [3, 6]: 40.2 | Cell growth (OD at 660 nm) [3, 7]: 39.5
